# “Also recorded” adds a separate entry of the source. Like-named read-outs stand apart in the source and are kept apart here. Marks after values point to notes of the source that are not given here.
# Format: in vivo, human
# [1] = stratum A, Level 1 (100 mg/m^2), Grade 1/2
# [2] = stratum A, Level 1 (100 mg/m^2), Grade 3/4
# [3] = stratum A, Level 2 (130 mg/m^2), Grade 1/2
# [4] = stratum A, Level 2 (130 mg/m^2), Grade 3/4
# [5] = stratum A, Level 3 (170 mg/m^2), Grade 1/2
# [6] = stratum A, Level 3 (170 mg/m^2), Grade 3/4
# [7] = stratum A, Level 4 (220 mg/m^2), Grade 1/2
# [8] = stratum A, Level 4 (220 mg/m^2), Grade 3/4
structure (smiles),measurement,setting,value
CC1(COc2ccc3c(c2)ncn3-c2ccc3cccc(N4CCC(N)CC4)c3n2)COC1 [crenolanib],Recommended pediatric phase II dosage,"once daily with food, with or without RT",170 mg/m^2
same,ALT increased,[1],10 (83%)
same,AST increased,[1],6 (50%)
same,Abdominal pain,[1],2 (17%)
same,Alkaline phosphatase increased,[1],1 (8%)
same,Anemia,[1],3 (25%)
same,Anorexia,[1],1 (8%)
same,Diarrhea,[1],2 (17%)
same,Dyspepsia,[1],2 (17%)
same,GGT increased,[1],5 (42%)
same,Headache,[1],0
same,Hematuria,[1],3 (25%)
same,Hypermagnesemia,[1],3 (25%)
same,Hypernatremia,[1],1 (8%)
same,Hypoalbuminemia,[1],7 (58%)
same,Hypocalcemia,[1],1 (8%)
same,Hypokalemia,[1],5 (42%)
same,Hypophosphatemia,[1],7 (58%)
same,Lipase increased,[1],5 (42%)
same,Lymphocyte count decreased,[1],2 (17%)
same,Nausea,[1],8 (67%)
same,Neutrophil count decreased,[1],0
same,Platelet count decreased,[1],4 (33%)
same,Proteinuria,[1],4 (33%)
same,Serum amylase increased,[1],4 (33%)
same,Stomach pain,[1],1 (8%)
same,Vomiting,[1],8 (67%)
same,White blood cell decreased,[1],4 (33%)
same,ALT increased,[2],1 (8%)
same,AST increased,[2],0
same,Abdominal pain,[2],0
same,Alkaline phosphatase increased,[2],0
same,Anemia,[2],1 (8%)
same,Anorexia,[2],0
same,Diarrhea,[2],0
same,Dyspepsia,[2],0
same,GGT increased,[2],3 (25%)
same,Headache,[2],1 (8%)
same,Hematuria,[2],0
same,Hypermagnesemia,[2],0
same,Hypernatremia,[2],0
same,Hypoalbuminemia,[2],0
same,Hypocalcemia,[2],0
same,Hypokalemia,[2],1 (8%)
same,Hypophosphatemia,[2],0
same,Lipase increased,[2],2 (17%)
same,Lymphocyte count decreased,[2],8 (67%)
same,Nausea,[2],0
same,Neutrophil count decreased,[2],5 (42%)^a
same,Platelet count decreased,[2],1 (8%)
same,Proteinuria,[2],1 (8%)
same,Serum amylase increased,[2],2 (17%)
same,Stomach pain,[2],0
same,Vomiting,[2],1 (8%)
same,White blood cell decreased,[2],5 (42%)
same,ALT increased,[3],2 (33%)
same,AST increased,[3],4 (67%)
same,Abdominal pain,[3],3 (50%)
same,Alkaline phosphatase increased,[3],3 (50%)
same,Anemia,[3],3 (50%)
same,Anorexia,[3],1 (17%)
same,Diarrhea,[3],3 (50%)
same,Dyspepsia,[3],0
same,GGT increased,[3],5 (83%)
same,Headache,[3],1 (17%)
same,Hematuria,[3],2 (33%)
same,Hypermagnesemia,[3],1 (17%)
same,Hypernatremia,[3],1 (17%)
same,Hypoalbuminemia,[3],2 (33%)
same,Hypocalcemia,[3],2 (33%)
same,Hypokalemia,[3],1 (17%)
same,Hypophosphatemia,[3],3 (50%)
same,Lipase increased,[3],2 (33%)
same,Lymphocyte count decreased,[3],0
same,Nausea,[3],5 (83%)
same,Neutrophil count decreased,[3],1 (17%)
same,Platelet count decreased,[3],3 (50%)
same,Proteinuria,[3],5 (83%)
same,Serum amylase increased,[3],0
same,Stomach pain,[3],2 (33%)
same,Vomiting,[3],6 (100%)
same,White blood cell decreased,[3],3 (50%)
same,ALT increased,[4],2 (33%)
same,AST increased,[4],0
same,Abdominal pain,[4],0
same,Alkaline phosphatase increased,[4],0
same,Anemia,[4],0
same,Anorexia,[4],0
same,Diarrhea,[4],0
same,Dyspepsia,[4],0
same,GGT increased,[4],0
same,Headache,[4],1 (17%)
same,Hematuria,[4],0
same,Hypermagnesemia,[4],0
same,Hypernatremia,[4],0
same,Hypoalbuminemia,[4],0
same,Hypocalcemia,[4],0
same,Hypokalemia,[4],1 (17%)
same,Hypophosphatemia,[4],0
same,Lipase increased,[4],0
same,Lymphocyte count decreased,[4],6 (100%)
same,Nausea,[4],0
same,Neutrophil count decreased,[4],2 (33%)
same,Platelet count decreased,[4],0
same,Proteinuria,[4],1 (17%)
same,Serum amylase increased,[4],1 (17%)
same,Stomach pain,[4],0
same,Vomiting,[4],0
same,White blood cell decreased,[4],2 (33%)
same,ALT increased,[5],4 (67%)
same,AST increased,[5],5 (83%)
same,Abdominal pain,[5],2 (33%)
same,Alkaline phosphatase increased,[5],2 (33%)
same,Anemia,[5],3 (50%)
same,Anorexia,[5],3 (50%)
same,Diarrhea,[5],3 (50%)
same,Dyspepsia,[5],1 (17%)
same,GGT increased,[5],4 (67%)
same,Headache,[5],0
same,Hematuria,[5],3 (50%)
same,Hypermagnesemia,[5],3 (50%)
same,Hypernatremia,[5],2 (33%)
same,Hypoalbuminemia,[5],4 (67%)
same,Hypocalcemia,[5],1 (17%)
same,Hypokalemia,[5],2 (33%)
same,Hypophosphatemia,[5],3 (50%)
same,Lipase increased,[5],1 (17%)
same,Lymphocyte count decreased,[5],2 (33%)
same,Nausea,[5],5 (83%)
same,Neutrophil count decreased,[5],1 (17%)
same,Platelet count decreased,[5],2 (33%)
same,Proteinuria,[5],5 (83%)
same,Serum amylase increased,[5],3 (50%)
same,Stomach pain,[5],0
same,Vomiting,[5],6 (100%)
same,White blood cell decreased,[5],4 (67%)
same,ALT increased,[6],2 (33%)
same,AST increased,[6],1 (17%)
same,Abdominal pain,[6],0
same,Alkaline phosphatase increased,[6],0
same,Anemia,[6],0
same,Anorexia,[6],0
same,Diarrhea,[6],0
same,Dyspepsia,[6],0
same,GGT increased,[6],2 (33%)^a
same,Headache,[6],0
same,Hematuria,[6],0
same,Hypermagnesemia,[6],0
same,Hypernatremia,[6],0
same,Hypoalbuminemia,[6],0
same,Hypocalcemia,[6],0
same,Hypokalemia,[6],2 (33%)
same,Hypophosphatemia,[6],0
same,Lipase increased,[6],0
same,Lymphocyte count decreased,[6],4 (67%)
same,Nausea,[6],0
same,Neutrophil count decreased,[6],0
same,Platelet count decreased,[6],0
same,Proteinuria,[6],0
same,Serum amylase increased,[6],0
same,Stomach pain,[6],0
same,Vomiting,[6],0
same,White blood cell decreased,[6],1 (17%)
same,ALT increased,[7],6 (75%)
same,AST increased,[7],7 (88%)
same,Abdominal pain,[7],1 (13%)
same,Alkaline phosphatase increased,[7],1 (13%)
same,Anemia,[7],6 (75%)
same,Anorexia,[7],2 (25%)
same,Diarrhea,[7],4 (50%)
same,Dyspepsia,[7],0
same,GGT increased,[7],6 (75%)
same,Headache,[7],1 (13%)
same,Hematuria,[7],2 (25%)
same,Hypermagnesemia,[7],5 (63%)
same,Hypernatremia,[7],0
same,Hypoalbuminemia,[7],6 (75%)
same,Hypocalcemia,[7],3 (38%)
same,Hypokalemia,[7],3 (38%)
same,Hypophosphatemia,[7],6 (75%)
same,Lipase increased,[7],2 (25%)
same,Lymphocyte count decreased,[7],0
same,Nausea,[7],7 (88%)
same,Neutrophil count decreased,[7],1 (13%)
same,Platelet count decreased,[7],3 (38%)
same,Proteinuria,[7],5 (63%)
same,Serum amylase increased,[7],3 (38%)
same,Stomach pain,[7],0
same,Vomiting,[7],8 (100%)
same,White blood cell decreased,[7],7 (88%)
same,ALT increased,[8],2 (25%)^a
same,AST increased,[8],0
same,Abdominal pain,[8],0
same,Alkaline phosphatase increased,[8],0
same,Anemia,[8],0
same,Anorexia,[8],0
same,Diarrhea,[8],0
same,Dyspepsia,[8],0
same,GGT increased,[8],1 (13%)^a
same,Headache,[8],0
same,Hematuria,[8],0
same,Hypermagnesemia,[8],0
same,Hypernatremia,[8],0
same,Hypoalbuminemia,[8],0
same,Hypocalcemia,[8],1 (13%)
same,Hypokalemia,[8],2 (25%)
same,Hypophosphatemia,[8],1 (13%)
same,Lipase increased,[8],0
same,Lymphocyte count decreased,[8],8 (100%)
same,Nausea,[8],0
same,Neutrophil count decreased,[8],0
same,Platelet count decreased,[8],0
same,Proteinuria,[8],0
same,Serum amylase increased,[8],0
same,Stomach pain,[8],0
same,Vomiting,[8],0
same,White blood cell decreased,[8],0
same,DLTs attributable to crenolanib during the DLT observation period,"stratum A, dose level 1",grade 4 neutropenia
same,DLTs attributable to crenolanib during the DLT observation period,"stratum A, dose level 3",grade 3 gamma-glutamyl transferase (GGT) elevation
same,DLTs attributable to crenolanib during the DLT observation period,"stratum A, dose level 4",grade 3 GGT elevation; also recorded: grade 3 ALT elevation
same,"patients having grade 3/4 elevations of ALT, AST, GGT, or alkaline phosphatase","stratum A, during and after the DLT period",28%
same,Maximum tolerated dose (MTD),"stratum A, once daily during and after RT, pediatric",170 mg/m^2
same,Most common grade 3/4 toxicity,"stratum A, resolved with drug interruption",leukopenia
